From ChEMBL document CHEMBL4052776, “Discovery of 3-morpholino-imidazole[1,5-a]pyrazine BTK inhibitors for rheumatoid arthritis” (Bioorg Med Chem Lett, 2017)

What was measured:
[1] = target: Voltage-gated inwardly rectifying potassium channel KCNH2 (Homo sapiens, UniProt Q12809); assay: Inhibition of human ERG by [35S]-MK499 displacement or iKr channel assay
[2] = Half life in dog at 2 mg/kg; type: ADME, organism-based, Canis lupus familiaris; conditions: in vivo
[3] = Oral bioavailability in rat at 10 mg/kg; type: ADME, organism-based; conditions: in vivo
[4] = Total clearance in dog plasma at 2 mg/kg; type: ADME, organism-based, Canis lupus familiaris
[5] = Half life in rat at 10 mg/kg; type: ADME, organism-based; conditions: in vivo
[6] = Oral bioavailability in dog at 2 mg/kg; type: ADME, organism-based, Canis lupus familiaris; conditions: in vivo
[7] = Total clearance in rat plasma at 10 mg/kg; type: ADME, organism-based
[8] = target: T1, Tyrosine-protein kinase BTK (Homo sapiens, UniProt Q06187); assay: Inhibition of recombinant full-length His6-tagged BTK (unknown origin) expressed in baculovirus infected Sf9 cells using biotinylated A5 peptide as substrate preincubated for 60 mins followed by substrate addition measured after 120 mins by LANCE TR-FRET assay
[9] = target: Tyrosine-protein kinase Lyn (Homo sapiens, UniProt P07948); assay: Inhibition of LYNB (unknown origin)
Sequence of Tyrosine-protein kinase Lyn (P07948 whole entry): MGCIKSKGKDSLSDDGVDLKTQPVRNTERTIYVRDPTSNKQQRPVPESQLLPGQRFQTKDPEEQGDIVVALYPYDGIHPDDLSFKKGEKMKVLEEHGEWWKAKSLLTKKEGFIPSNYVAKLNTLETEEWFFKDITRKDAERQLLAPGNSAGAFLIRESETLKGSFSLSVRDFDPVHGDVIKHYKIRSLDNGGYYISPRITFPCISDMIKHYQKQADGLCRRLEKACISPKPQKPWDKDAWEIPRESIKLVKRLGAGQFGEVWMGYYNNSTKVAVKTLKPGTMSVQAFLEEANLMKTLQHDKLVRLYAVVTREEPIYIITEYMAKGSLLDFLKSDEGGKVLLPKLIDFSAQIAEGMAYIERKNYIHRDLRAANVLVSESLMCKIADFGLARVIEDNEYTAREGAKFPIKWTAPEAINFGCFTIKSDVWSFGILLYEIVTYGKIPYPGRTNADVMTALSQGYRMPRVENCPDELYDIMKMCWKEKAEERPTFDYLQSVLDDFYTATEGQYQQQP

[10] = target: T1, Tyrosine-protein kinase BTK; assay: Inhibition of BTK in human PBMC assessed as reduction in anti-IgM-induced MIP1beta
[11] = target: Receptor tyrosine-protein kinase erbB-4 (Homo sapiens, UniProt Q15303); assay: Inhibition of ERBB4 (unknown origin)
Sequence of Receptor tyrosine-protein kinase erbB-4 (Q15303 whole entry): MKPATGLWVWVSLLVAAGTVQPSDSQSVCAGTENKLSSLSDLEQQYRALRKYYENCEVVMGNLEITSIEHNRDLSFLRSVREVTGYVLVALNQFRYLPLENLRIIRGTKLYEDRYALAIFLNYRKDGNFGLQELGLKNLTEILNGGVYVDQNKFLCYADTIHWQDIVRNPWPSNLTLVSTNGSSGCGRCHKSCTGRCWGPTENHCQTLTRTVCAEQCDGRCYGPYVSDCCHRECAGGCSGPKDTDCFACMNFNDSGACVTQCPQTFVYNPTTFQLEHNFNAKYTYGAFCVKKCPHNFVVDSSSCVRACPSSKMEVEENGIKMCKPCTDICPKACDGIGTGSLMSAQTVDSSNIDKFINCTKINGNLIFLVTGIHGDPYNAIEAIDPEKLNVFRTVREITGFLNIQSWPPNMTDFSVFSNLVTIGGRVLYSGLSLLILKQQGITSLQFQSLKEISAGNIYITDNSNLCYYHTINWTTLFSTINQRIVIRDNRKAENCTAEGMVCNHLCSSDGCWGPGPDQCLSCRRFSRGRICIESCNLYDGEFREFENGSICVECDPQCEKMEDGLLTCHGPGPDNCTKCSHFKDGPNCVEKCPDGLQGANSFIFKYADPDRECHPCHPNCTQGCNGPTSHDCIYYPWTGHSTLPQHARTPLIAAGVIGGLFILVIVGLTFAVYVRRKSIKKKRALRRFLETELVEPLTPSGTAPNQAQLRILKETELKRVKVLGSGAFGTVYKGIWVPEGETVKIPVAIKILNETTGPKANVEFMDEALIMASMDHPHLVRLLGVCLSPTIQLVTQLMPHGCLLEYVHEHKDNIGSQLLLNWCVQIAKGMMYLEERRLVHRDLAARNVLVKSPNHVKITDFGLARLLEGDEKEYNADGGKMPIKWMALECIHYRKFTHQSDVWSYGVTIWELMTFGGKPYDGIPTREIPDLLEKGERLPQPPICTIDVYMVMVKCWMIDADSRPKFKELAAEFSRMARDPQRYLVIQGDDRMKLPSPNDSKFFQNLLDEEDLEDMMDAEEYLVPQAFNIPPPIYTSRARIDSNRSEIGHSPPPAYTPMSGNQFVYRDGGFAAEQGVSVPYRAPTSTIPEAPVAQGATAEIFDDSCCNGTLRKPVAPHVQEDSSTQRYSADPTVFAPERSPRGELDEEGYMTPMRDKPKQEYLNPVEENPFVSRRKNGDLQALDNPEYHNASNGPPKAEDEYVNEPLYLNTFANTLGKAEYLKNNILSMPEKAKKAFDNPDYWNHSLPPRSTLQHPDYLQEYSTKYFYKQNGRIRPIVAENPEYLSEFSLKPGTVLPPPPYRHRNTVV

[12] = target: Tyrosine-protein kinase Yes (Homo sapiens, UniProt P07947); assay: Inhibition of YES1 (unknown origin)
Sequence of Tyrosine-protein kinase Yes (P07947 whole entry): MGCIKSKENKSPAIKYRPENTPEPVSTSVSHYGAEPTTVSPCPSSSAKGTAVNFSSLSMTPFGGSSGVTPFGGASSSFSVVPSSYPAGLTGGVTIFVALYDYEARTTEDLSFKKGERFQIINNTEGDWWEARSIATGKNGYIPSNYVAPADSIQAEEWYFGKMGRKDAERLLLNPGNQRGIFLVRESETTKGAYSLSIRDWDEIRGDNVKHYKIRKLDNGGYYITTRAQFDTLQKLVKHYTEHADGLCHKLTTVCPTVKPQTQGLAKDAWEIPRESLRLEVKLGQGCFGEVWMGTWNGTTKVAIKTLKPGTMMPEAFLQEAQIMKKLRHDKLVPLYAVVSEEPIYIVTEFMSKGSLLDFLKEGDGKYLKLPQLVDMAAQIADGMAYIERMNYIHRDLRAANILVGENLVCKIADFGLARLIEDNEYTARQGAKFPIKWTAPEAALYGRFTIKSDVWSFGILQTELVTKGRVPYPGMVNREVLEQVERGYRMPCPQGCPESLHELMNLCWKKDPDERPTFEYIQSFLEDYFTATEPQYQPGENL

[13] = target: Tyrosine-protein kinase Fyn (Homo sapiens, UniProt P06241); assay: Inhibition of FYN (unknown origin)
[14] = target: T2, Tyrosine-protein kinase Tec (Homo sapiens, UniProt P42680); assay: Inhibition of TEC (unknown origin)
T2 sequence (P42680 whole entry): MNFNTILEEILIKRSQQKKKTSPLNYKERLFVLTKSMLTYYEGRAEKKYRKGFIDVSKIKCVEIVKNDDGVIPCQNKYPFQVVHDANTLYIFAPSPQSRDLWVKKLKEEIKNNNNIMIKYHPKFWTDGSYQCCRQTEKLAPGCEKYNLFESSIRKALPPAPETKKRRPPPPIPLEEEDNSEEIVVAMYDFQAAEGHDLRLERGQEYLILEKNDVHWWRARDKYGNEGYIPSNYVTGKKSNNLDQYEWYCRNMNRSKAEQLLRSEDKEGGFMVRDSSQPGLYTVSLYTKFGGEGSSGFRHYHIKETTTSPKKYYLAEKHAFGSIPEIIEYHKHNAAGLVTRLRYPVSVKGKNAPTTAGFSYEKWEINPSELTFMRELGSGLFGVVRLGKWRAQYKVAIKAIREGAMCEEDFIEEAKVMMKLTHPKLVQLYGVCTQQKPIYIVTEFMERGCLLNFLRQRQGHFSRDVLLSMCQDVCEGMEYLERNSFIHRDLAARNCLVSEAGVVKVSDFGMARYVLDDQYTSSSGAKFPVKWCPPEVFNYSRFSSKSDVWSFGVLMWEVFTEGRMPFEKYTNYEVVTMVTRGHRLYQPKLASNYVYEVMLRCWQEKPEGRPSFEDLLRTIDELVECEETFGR

[15] = target: Protein-tyrosine kinase 6 (Homo sapiens, UniProt Q13882); assay: Inhibition of PTK6 (unknown origin)
[16] = target: Tyrosine-protein kinase Lck (Homo sapiens, UniProt P06239); assay: Inhibition of LCK (unknown origin)
[17] = target: T3, Tyrosine-protein kinase TXK (Homo sapiens, UniProt P42681); assay: Inhibition of TXK (unknown origin)
T3 sequence (P42681 whole entry): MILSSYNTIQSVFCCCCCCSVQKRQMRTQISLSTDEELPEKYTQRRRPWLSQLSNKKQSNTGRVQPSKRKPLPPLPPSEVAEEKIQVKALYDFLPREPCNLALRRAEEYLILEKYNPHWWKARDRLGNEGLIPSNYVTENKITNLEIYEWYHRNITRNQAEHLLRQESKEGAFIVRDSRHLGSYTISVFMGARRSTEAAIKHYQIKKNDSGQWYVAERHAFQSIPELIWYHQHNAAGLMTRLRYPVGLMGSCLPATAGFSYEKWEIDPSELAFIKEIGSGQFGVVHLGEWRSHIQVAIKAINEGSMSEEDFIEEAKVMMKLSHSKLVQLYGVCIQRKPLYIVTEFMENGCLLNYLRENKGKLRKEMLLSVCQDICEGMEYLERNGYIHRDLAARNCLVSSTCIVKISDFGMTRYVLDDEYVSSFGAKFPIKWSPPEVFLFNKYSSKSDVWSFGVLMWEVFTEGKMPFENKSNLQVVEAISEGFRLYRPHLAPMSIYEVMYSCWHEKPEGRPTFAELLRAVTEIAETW

[18] = target: T4, Cytoplasmic tyrosine-protein kinase BMX (Homo sapiens, UniProt P51813); assay: Inhibition of BMX (unknown origin)
T4 sequence (P51813 whole entry): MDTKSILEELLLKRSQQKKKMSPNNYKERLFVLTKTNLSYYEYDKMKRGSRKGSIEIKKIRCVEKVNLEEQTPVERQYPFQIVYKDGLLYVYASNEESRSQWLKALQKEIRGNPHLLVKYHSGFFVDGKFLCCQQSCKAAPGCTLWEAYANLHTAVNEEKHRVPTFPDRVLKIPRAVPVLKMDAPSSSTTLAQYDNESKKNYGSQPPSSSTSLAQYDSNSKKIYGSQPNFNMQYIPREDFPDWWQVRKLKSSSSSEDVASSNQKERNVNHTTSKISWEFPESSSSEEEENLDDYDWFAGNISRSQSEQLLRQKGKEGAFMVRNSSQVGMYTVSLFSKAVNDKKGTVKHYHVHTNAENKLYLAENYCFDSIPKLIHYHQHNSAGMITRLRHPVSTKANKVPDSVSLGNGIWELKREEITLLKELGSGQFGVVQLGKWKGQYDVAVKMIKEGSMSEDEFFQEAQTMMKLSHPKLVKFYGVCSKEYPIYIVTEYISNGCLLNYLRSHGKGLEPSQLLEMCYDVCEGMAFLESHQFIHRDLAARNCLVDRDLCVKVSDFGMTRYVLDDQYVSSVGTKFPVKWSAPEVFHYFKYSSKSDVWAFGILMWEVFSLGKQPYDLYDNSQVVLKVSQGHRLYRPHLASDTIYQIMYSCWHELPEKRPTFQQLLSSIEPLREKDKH

[19] = target: Tyrosine-protein kinase Srms (Homo sapiens, UniProt Q9H3Y6); assay: Inhibition of SRMS (unknown origin)
Sequence of Tyrosine-protein kinase Srms (Q9H3Y6 whole entry): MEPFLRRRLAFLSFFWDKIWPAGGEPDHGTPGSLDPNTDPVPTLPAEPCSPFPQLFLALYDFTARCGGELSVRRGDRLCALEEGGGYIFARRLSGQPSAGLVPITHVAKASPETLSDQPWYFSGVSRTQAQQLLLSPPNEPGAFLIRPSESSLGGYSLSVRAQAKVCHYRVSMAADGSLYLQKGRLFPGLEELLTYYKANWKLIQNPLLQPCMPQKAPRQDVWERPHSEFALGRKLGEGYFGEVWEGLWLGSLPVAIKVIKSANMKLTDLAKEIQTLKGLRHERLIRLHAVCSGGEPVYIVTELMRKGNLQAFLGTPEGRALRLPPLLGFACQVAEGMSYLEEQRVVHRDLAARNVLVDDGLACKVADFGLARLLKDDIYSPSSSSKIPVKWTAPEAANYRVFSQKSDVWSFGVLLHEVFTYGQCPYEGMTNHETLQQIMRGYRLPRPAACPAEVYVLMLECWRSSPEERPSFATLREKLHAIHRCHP

[20] = target: Tyrosine-protein kinase Blk (Homo sapiens, UniProt P51451); assay: Inhibition of BLK (unknown origin)
[21] = target: Tyrosine-protein kinase FRK (Homo sapiens, UniProt P42685); assay: Inhibition of FRK (unknown origin)
Sequence of Tyrosine-protein kinase FRK (P42685 whole entry): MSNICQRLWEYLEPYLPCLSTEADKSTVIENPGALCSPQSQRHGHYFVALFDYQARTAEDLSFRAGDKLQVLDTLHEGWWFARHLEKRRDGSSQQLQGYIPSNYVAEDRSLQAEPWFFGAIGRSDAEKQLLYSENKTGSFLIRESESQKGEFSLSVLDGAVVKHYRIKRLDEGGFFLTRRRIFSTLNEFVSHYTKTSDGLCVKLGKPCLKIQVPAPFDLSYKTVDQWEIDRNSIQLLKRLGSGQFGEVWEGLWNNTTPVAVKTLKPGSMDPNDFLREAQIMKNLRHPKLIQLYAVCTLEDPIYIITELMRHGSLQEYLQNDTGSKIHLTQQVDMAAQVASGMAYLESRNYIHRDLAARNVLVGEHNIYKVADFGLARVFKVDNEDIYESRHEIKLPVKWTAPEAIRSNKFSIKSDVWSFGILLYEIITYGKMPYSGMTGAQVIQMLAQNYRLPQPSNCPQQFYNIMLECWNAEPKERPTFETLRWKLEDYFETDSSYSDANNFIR

[22] = target: Proto-oncogene tyrosine-protein kinase Src (Homo sapiens, UniProt P12931); assay: Inhibition of SRC (unknown origin)
Sequence of Proto-oncogene tyrosine-protein kinase Src (P12931 2-536 limits assumed): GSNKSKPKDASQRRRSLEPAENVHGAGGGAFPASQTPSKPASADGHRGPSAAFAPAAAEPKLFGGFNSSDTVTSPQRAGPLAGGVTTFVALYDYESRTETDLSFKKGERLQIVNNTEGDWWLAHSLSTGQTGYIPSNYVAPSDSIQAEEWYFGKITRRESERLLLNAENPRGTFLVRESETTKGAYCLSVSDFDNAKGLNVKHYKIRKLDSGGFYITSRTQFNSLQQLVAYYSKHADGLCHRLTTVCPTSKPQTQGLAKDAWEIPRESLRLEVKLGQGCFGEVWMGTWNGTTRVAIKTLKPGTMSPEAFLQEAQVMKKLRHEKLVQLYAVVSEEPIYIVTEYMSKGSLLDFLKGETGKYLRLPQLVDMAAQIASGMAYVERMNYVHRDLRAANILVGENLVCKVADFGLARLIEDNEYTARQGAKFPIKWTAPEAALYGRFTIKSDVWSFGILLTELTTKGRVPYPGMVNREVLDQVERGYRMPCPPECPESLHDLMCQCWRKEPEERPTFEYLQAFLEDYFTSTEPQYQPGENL

[23] = target: Tyrosine-protein kinase CSK (Homo sapiens, UniProt P41240); assay: Inhibition of CSK (unknown origin)
[24] = target: Tyrosine-protein kinase Fgr (Homo sapiens, UniProt P09769); assay: Inhibition of FGR (unknown origin)
Homo sapiens [25] = organism: Homo sapiens; assay: Selectivity ratio of IC50 for FYN (unknown origin) to IC50 for BTK (unknown origin)
Homo sapiens [26] = organism: Homo sapiens; assay: Selectivity ratio of IC50 for TEC (unknown origin) to IC50 for BTK (unknown origin)
Homo sapiens [27] = organism: Homo sapiens; assay: Selectivity ratio of IC50 for PTK6 (unknown origin) to IC50 for BTK (unknown origin)
Homo sapiens [28] = organism: Homo sapiens; assay: Selectivity ratio of IC50 for BMX (unknown origin) to IC50 for BTK (unknown origin)
Homo sapiens [29] = organism: Homo sapiens; assay: Selectivity ratio of IC50 for TXK (unknown origin) to IC50 for BTK (unknown origin)
Homo sapiens [30] = organism: Homo sapiens; assay: Selectivity ratio of IC50 for ERBB4 (unknown origin) to IC50 for BTK (unknown origin)
Homo sapiens [31] = organism: Homo sapiens; assay: Selectivity ratio of IC50 for LCK (unknown origin) to IC50 for BTK (unknown origin)
Homo sapiens [32] = organism: Homo sapiens; assay: Selectivity ratio of IC50 for CSK (unknown origin) to IC50 for BTK (unknown origin)
Homo sapiens [33] = organism: Homo sapiens; assay: Selectivity ratio of IC50 for FGR (unknown origin) to IC50 for BTK (unknown origin)
Homo sapiens [34] = organism: Homo sapiens; assay: Selectivity ratio of IC50 for BLK (unknown origin) to IC50 for BTK (unknown origin)
Homo sapiens [35] = organism: Homo sapiens; assay: Selectivity ratio of IC50 for YES1 (unknown origin) to IC50 for BTK (unknown origin)
Homo sapiens [36] = organism: Homo sapiens; assay: Selectivity ratio of IC50 for LYNB (unknown origin) to IC50 for BTK (unknown origin)
Homo sapiens [37] = organism: Homo sapiens; assay: Selectivity ratio of IC50 for SRMS (unknown origin) to IC50 for BTK (unknown origin)
Homo sapiens [38] = organism: Homo sapiens; assay: Selectivity ratio of IC50 for FRK (unknown origin) to IC50 for BTK (unknown origin)
Homo sapiens [39] = organism: Homo sapiens; assay: Selectivity ratio of IC50 for SRC (unknown origin) to IC50 for BTK (unknown origin)

Sequence of Voltage-gated inwardly rectifying potassium channel KCNH2 (Q12809 whole entry): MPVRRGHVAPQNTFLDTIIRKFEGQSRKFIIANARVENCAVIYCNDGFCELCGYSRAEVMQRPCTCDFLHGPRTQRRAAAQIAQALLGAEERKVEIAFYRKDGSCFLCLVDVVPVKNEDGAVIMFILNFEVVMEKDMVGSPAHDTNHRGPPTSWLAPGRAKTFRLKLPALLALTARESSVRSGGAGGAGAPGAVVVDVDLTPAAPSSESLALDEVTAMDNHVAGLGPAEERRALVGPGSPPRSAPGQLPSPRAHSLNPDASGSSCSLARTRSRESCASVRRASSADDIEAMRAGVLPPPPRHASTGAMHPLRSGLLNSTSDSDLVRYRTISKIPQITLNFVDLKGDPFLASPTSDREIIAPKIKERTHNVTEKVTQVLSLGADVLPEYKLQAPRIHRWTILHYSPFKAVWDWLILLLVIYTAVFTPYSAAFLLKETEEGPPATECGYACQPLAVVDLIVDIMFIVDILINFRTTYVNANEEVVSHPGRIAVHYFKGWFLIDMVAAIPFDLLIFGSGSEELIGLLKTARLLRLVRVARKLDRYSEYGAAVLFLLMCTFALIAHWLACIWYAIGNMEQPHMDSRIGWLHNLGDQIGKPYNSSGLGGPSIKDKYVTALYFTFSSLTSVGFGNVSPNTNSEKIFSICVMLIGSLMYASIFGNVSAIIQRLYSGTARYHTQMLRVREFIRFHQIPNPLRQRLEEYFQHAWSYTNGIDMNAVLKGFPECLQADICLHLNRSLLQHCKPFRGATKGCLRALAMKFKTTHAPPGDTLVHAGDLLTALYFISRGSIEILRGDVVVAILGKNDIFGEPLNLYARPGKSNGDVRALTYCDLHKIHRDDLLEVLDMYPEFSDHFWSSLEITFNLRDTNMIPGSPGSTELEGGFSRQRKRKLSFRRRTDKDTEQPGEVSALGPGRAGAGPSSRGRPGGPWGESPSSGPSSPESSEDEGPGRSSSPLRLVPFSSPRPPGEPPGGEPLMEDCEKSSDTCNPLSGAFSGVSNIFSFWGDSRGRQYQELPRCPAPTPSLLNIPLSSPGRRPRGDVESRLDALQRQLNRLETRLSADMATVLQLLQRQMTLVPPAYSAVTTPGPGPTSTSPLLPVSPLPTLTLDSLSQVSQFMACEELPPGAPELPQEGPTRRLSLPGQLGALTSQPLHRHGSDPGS

SMILES | IC50 [1] [nM] | IC50 [8] [nM] | IC50 [9] [nM] | IC50 [10] [nM] | IC50 [11] [nM] | IC50 [12] [nM] | IC50 [13] [nM] | IC50 [14] [nM] | IC50 [15] [nM] | IC50 [16] [nM] | IC50 [17] [nM] | IC50 [18] [nM] | IC50 [19] [nM] | IC50 [20] [nM] | IC50 [21] [nM] | IC50 [22] [nM] | IC50 [23] [nM] | IC50 [24] [nM] | Ratio IC50 (Homo sapiens [25]) | Ratio IC50 (Homo sapiens [26]) | also measured
COCCC(=O)N1CCO[C@@H](c2nc(-c3ccc(C(=O)Nc4cc(C(F)(F)F)ccn4)cc3)c3c(N)nccn23)C1 | 5800 |  |  |  |  |  |  |  |  |  |  |  |  |  |  |  |  |  |  |  | 
C[C@H]1CO[C@@H](c2nc(-c3ccc(C(=O)Nc4cc(C(F)(F)F)ccn4)cc3F)c3c(N)nccn23)CN1C(=O)C1CC1 |  |  |  |  |  |  |  |  |  |  |  |  |  |  |  |  |  |  |  |  | half-life [2]: 8.8 h; bioavailability [3]: 40%; clearance [4]: 1.6 mL/min/kg; half-life [5]: 3.9 h; bioavailability [6]: 88%; clearance [7]: 4.2 mL/min/kg
CC(C)C(=O)N1CCC[C@@H](c2nc(-c3ccc(C(=O)Nc4cc(C(F)(F)F)ccn4)cc3F)c3c(N)nccn23)C1 |  | 0.25 to 0.3 | 646 | 5 | 230 | 189 | 894 | 378 | 350 | 74 | 132 | 83 | 84 | 53 | 472 | 265 | 1150 | 203 |  |  | 
COCC(=O)N1CCC[C@@H](c2nc(-c3ccc(C(=O)Nc4cc(C(F)(F)F)ccn4)cc3F)c3c(N)nccn23)C1 | 4500 | 0.2 to 0.22 | 74 | 13 | 71 | 37 | 188 | 63 | 60 | 11 | 45 | 20 | 19 | 9 | 151 | 55 | 261 | 28 | 853 | 287 | Ratio IC50 (Homo sapiens [27]): 273; Ratio IC50 (Homo sapiens [28]): 93; Ratio IC50 (Homo sapiens [29]): 203; Ratio IC50 (Homo sapiens [30]): 322; Ratio IC50 (Homo sapiens [31]): 51; Ratio IC50 (Homo sapiens [32]): 1180; Ratio IC50 (Homo sapiens [33]): 127; Ratio IC50 (Homo sapiens [34]): 39; Ratio IC50 (Homo sapiens [35]): 167; Ratio IC50 (Homo sapiens [36]): 335; Ratio IC50 (Homo sapiens [37]): 86; Ratio IC50 (Homo sapiens [38]): 687; Ratio IC50 (Homo sapiens [39]): 251
CC1(C(=O)N2CCO[C@@H](c3nc(-c4ccc(C(=O)Nc5cc(C(F)(F)F)ccn5)cc4F)c4c(N)nccn34)C2)CCC1 | 14000 |  |  |  |  |  |  |  |  |  |  |  |  |  |  |  |  |  |  |  | 
Nc1nccn2c([C@@H]3CCCN(C4CCOCC4)C3)nc(-c3ccc(C(=O)Nc4cc(C(F)(F)F)ccn4)cc3F)c12 | 100 | 0.8 to 0.83 | 115 | 65 | 59 | 32 | 105 | 170 | 48 | 7 | 231 | 127 | 50 | 29 | 85 | 77 | 455 | 22 | 127 | 205 | Ratio IC50 (Homo sapiens [27]): 58; Ratio IC50 (Homo sapiens [28]): 153; Ratio IC50 (Homo sapiens [29]): 278; Ratio IC50 (Homo sapiens [30]): 71; Ratio IC50 (Homo sapiens [31]): 9; Ratio IC50 (Homo sapiens [32]): 548; Ratio IC50 (Homo sapiens [33]): 26; Ratio IC50 (Homo sapiens [34]): 35; Ratio IC50 (Homo sapiens [35]): 38; Ratio IC50 (Homo sapiens [36]): 138; Ratio IC50 (Homo sapiens [37]): 60; Ratio IC50 (Homo sapiens [38]): 102; Ratio IC50 (Homo sapiens [39]): 93
